Reference: the CheMixHub viscosity set

Experiment: xn = mol fraction of the nth substance listed

CCCCCCCCCO + C1CCCCC1
viscosity [mPa·s]
Conditions	293.15 K	303.15 K	313.15 K	323.15 K
100 kPa, x2 = 0.0822	9.85	6.89	4.93	3.66
100 kPa, x2 = 0.1616	8.5	6	4.32	3.23
100 kPa, x2 = 0.2413	7.2	5.17	3.76	2.83
100 kPa, x2 = 0.3502	5.63	4.15	3.05	2.33
100 kPa, x2 = 0.4404	4.51	3.44	2.54	1.96
100 kPa, x2 = 0.5611	3.29	2.63	1.97	1.56
100 kPa, x2 = 0.6503	2.57	2.13	1.6	1.3
100 kPa, x2 = 0.7412	1.96	1.68	1.3	1.08
100 kPa, x2 = 0.8514	1.42	1.26	1.03	0.86
100 kPa, x2 = 0.9397	1.11	0.97	0.81	0.7
101.33 kPa, x1 = 0.105	–	1.068	–	–
101.33 kPa, x1 = 0.2105	–	1.397	–	–
101.33 kPa, x1 = 0.311	–	1.784	–	–
101.33 kPa, x1 = 0.3969	–	2.186	–	–
101.33 kPa, x1 = 0.4955	–	2.735	–	–
101.33 kPa, x1 = 0.6055	–	3.462	–	–
101.33 kPa, x1 = 0.6959	–	4.153	–	–
101.33 kPa, x1 = 0.801	–	5.108	–	–
101.33 kPa, x1 = 0.9054	–	6.215	–	–

CCCCCCCCCO + CO
viscosity [mPa·s], 101 kPa
Conditions	298.15 K	308.15 K	318.15 K
x2 = 0.05	8.515	6.146	4.44
x2 = 0.1	7.93	5.765	4.2
x2 = 0.15	7.356	5.387	3.958
x2 = 0.2	6.793	5.013	3.716
x2 = 0.25	6.245	4.644	3.474
x2 = 0.3	5.711	4.281	3.233
x2 = 0.35	5.193	3.925	2.994
x2 = 0.4	4.694	3.579	2.756
x2 = 0.45	4.214	3.242	2.521
x2 = 0.5	3.754	2.916	2.29
x2 = 0.55	3.317	2.603	2.063
x2 = 0.6	2.902	2.302	1.841
x2 = 0.65	2.511	2.016	1.625
x2 = 0.7	2.146	1.744	1.417
x2 = 0.75	1.807	1.488	1.215
x2 = 0.8	1.496	1.248	1.023
x2 = 0.85	1.212	1.025	0.8404
x2 = 0.9	0.9583	0.8198	0.6684
x2 = 0.95	0.7342	0.6326	0.508

CC1CCCCC1=O (stereo not drawn) + NC=O
viscosity [mPa·s], 100 kPa
Conditions	x1 = 0.1005	x1 = 0.1979	x1 = 0.2917	x1 = 0.4002	x1 = 0.5089	x1 = 0.6019	x1 = 0.6999	x1 = 0.8001	x1 = 0.9001
303.15 K	2.822	2.768	2.712	2.644	2.575	2.513	2.446	2.375	2.302
308.15 K	2.583	2.549	2.513	2.468	2.42	2.378	2.331	2.281	2.228
313.15 K	2.346	2.332	2.315	2.291	2.265	2.242	2.217	2.188	2.154

O=[N+]([O-])c1ccccc1O + Brc1ccccc1
viscosity [mPa·s], 101 kPa
Conditions	303.15 K	308.15 K	313.15 K	318.15 K	323.15 K
x1 = 0.602	1.884	1.719	1.576	1.46	1.35
x1 = 0.8579	–	2.658	2.366	2.134	1.934

O=[N+]([O-])c1ccccc1O + c1ccc2ncccc2c1
viscosity [mPa·s], 101 kPa
Conditions	303.15 K	313.15 K
x1 = 0.1011	3.361	2.66
x1 = 0.2021	3.772	2.928
x1 = 0.2913	4.125	3.16
x1 = 0.3982	4.495	3.375
x1 = 0.4731	4.68	3.465
x1 = 0.5638	4.72	3.47
x1 = 0.6538	4.595	3.41
x1 = 0.7624	4.355	3.25
x1 = 0.8131	4.22	3.151
x1 = 0.8588	4.09	3.059
x1 = 0.9056	3.95	2.955
x1 = 0.9521	–	2.855

CC(=O)N(C)C + CC#N
303.15 K, 101.33 kPa
Conditions	viscosity [mPa·s]
x2 = 0.0996	0.8371
x2 = 0.2019	0.7966
x2 = 0.2938	0.7487
x2 = 0.3974	0.7001
x2 = 0.497	0.6422
x2 = 0.5983	0.5843
x2 = 0.7013	0.5199
x2 = 0.7983	0.4568
x2 = 0.9001	0.3878

O=[N+]([O-])c1ccccc1O + CN1CCC[C@H]1c1cccnc1
viscosity [mPa·s], 101.33 kPa
Conditions	308.15 K	323.15 K
x2 = 0.102	–	2.724
x2 = 0.1563	5.072	3.073
x2 = 0.2019	5.996	3.527
x2 = 0.302	7.601	4.122
x2 = 0.3189	7.832	4.24
x2 = 0.3345	8.011	4.344
x2 = 0.3506	8.004	4.389
x2 = 0.3662	7.982	4.388
x2 = 0.4077	7.889	4.362
x2 = 0.5005	7.375	4.12
x2 = 0.603	6.569	3.83
x2 = 0.6988	5.676	3.421
x2 = 0.7988	4.612	2.927
x2 = 0.8937	3.86	2.523

C1CCCCCCCCCCC1 + Cc1ccccc1
303 K, 101 kPa
Conditions	viscosity [mPa·s]
x1 = 0.0186	0.5245
x2 = 0.8099	0.6724
x2 = 0.9012	0.5699
x2 = 0.9426	0.5336

CC(=O)N(C)C + CO
viscosity [mPa·s], 101 kPa
Conditions	303.15 K	308.15 K	313.15 K	318.15 K
x1 = 0.0976	0.572	–	–	–
x1 = 0.1993	0.626	–	–	–
x1 = 0.2967	0.673	–	–	–
x1 = 0.3971	0.712	–	–	–
x1 = 0.4998	0.75	–	–	–
x1 = 0.5962	0.78	–	–	–
x1 = 0.648	0.795	–	–	–
x1 = 0.7762	0.829	–	–	–
x1 = 0.8699	0.846	–	–	–
x2 = 0.125	0.872	0.795	0.737	0.693
x2 = 0.232	0.856	0.784	0.725	0.675
x2 = 0.324	0.832	0.763	0.709	0.655
x2 = 0.405	0.797	0.733	0.682	0.625
x2 = 0.644	0.697	0.647	0.598	0.539
x2 = 0.915	0.567	0.531	0.492	0.431
x2 = 0.939	0.544	0.507	0.471	0.413
x2 = 0.961	0.529	0.494	0.458	0.398

CC1CCCCC1=O (stereo not drawn) + CNC=O
viscosity [mPa·s], 100 kPa
Conditions	x1 = 0.0925	x1 = 0.1835	x1 = 0.2805	x1 = 0.3919	x1 = 0.4985	x1 = 0.5995	x1 = 0.6901	x1 = 0.7921	x1 = 0.8995
303.15 K	1.655	1.722	1.79	1.865	1.934	1.997	2.052	2.111	2.171
308.15 K	1.541	1.614	1.689	1.771	1.847	1.917	1.978	2.045	2.111
313.15 K	1.439	1.518	1.597	1.684	1.766	1.842	1.909	1.982	2.053

O=[N+]([O-])c1ccccc1O + Nc1ccccc1
viscosity [mPa·s], 101 kPa
Conditions	x1 = 0.07555	x1 = 0.1616	x1 = 0.246	x1 = 0.3265	x1 = 0.4134	x1 = 0.5065	x1 = 0.5908	x1 = 0.6928	x1 = 0.7919	x1 = 0.878
303.15 K	2.972	2.863	2.805	2.802	2.828	2.881	2.952	3.068	3.225	–
313.15 K	2.322	2.257	2.224	2.215	2.23	2.272	2.328	2.415	2.515	2.61

CC(=O)OCCC1CCCCC1 + CCCCCCCCCCO
viscosity [mPa·s], 101 kPa
Conditions	300 K	310 K	320 K
x2 = 0.1066	2.65	2.14	1.77
x2 = 0.1534	2.74	2.2	1.82
x2 = 0.2863	2.94	2.34	1.91
x2 = 0.337	3.14	2.46	2.01
x2 = 0.4105	3.47	2.72	2.15
x2 = 0.4983	3.91	3.02	2.41
x2 = 0.5476	4.25	3.26	2.56
x2 = 0.6306	4.92	3.76	2.93
x2 = 0.702	5.57	4.15	3.18
x2 = 0.7382	5.93	4.4	3.37
x2 = 0.8402	7.22	5.25	3.94
x2 = 0.9332	8.92	6.35	4.67

CC(=O)N(C)C + COC(=O)OC
298.15 K, 101 kPa
Conditions	viscosity [mPa·s]
x2 = 0.0376	0.937
x2 = 0.0836	0.914
x2 = 0.1443	0.887
x2 = 0.2234	0.854
x2 = 0.3348	0.807
x2 = 0.4705	0.757
x2 = 0.5544	0.726
x2 = 0.6212	0.702
x2 = 0.6902	0.679
x2 = 0.7541	0.659
x2 = 0.8244	0.636
x2 = 0.9102	0.608

Cc1cccc2ccccc12 + Cc1ccccc1
viscosity [mPa·s], 100 kPa
Conditions	x2 = 0.2784	x2 = 0.6068	x2 = 0.8224
298.15 K	1.646	1.036	0.731
313.15 K	1.285	0.841	0.608

Cc1cccc2ccccc12 + CCCCCCC
viscosity [mPa·s], 100 kPa
Conditions	x2 = 0.125	x2 = 0.25	x2 = 0.375	x2 = 0.5	x2 = 0.625	x2 = 0.75	x2 = 0.875
303.15 K	1.84	1.36	1.03	0.8	0.644	0.524	0.438
323.15 K	1.3	1	0.781	0.625	0.512	0.424	0.357

CN(C)CCCO + O
viscosity [mPa·s], 101 kPa
Conditions	303.15 K	308.15 K	313.15 K	318.15 K	323.15 K
x1 = 0.0478	2.218	1.896	1.635	1.432	1.262
x1 = 0.0968	4.633	3.796	3.147	2.654	2.264
x1 = 0.1512	7.882	6.285	5.078	4.181	3.481
x1 = 0.2009	–	8.49	6.753	5.485	4.497
x1 = 0.2997	14.97	11.59	9.103	7.288	5.903
x1 = 0.3537	–	12.35	9.663	7.732	6.247
x1 = 0.4037	16.02	12.42	9.761	7.792	6.34
x1 = 0.4574	15.39	12	9.458	7.631	6.19
x1 = 0.499	14.63	11.46	9.077	7.329	5.974
x1 = 0.6012	12.08	9.654	7.784	6.38	5.271
x1 = 0.7274	9.064	7.42	6.133	5.114	4.304
x1 = 0.8081	7.504	6.239	5.224	4.417	3.765
x1 = 0.9112	5.925	5.02	4.261	3.658	3.168

CC1CCCCC1=O (stereo not drawn) + CN(C)c1ccccc1
viscosity [mPa·s], 101 kPa
Conditions	303.15 K	308.15 K
x2 = 0.0798	2.088	2.021
x2 = 0.1302	2.007	1.934
x2 = 0.2014	1.899	1.82
x2 = 0.2705	1.801	1.718
x2 = 0.3456	1.704	1.618
x2 = 0.4121	1.625	1.536
x2 = 0.4952	1.536	1.446
x2 = 0.5625	1.471	1.379
x2 = 0.6325	1.41	1.318
x2 = 0.7025	1.355	1.264
x2 = 0.7652	1.31	1.221
x2 = 0.8312	1.268	1.183
x2 = 0.9025	1.226	1.148

C[NH+](C)CCO.O=C([O-])CC(=O)O + O
101 kPa, x2 = 0.88
Conditions	viscosity [mPa·s]
298 K	9.67
313 K	6.09

O=C(Nc1ccccc1)Nc1ccccc1 + c1ccncc1
298.15 K, 101 kPa
Conditions	viscosity [mPa·s]
x1 = 0.022	1.045
x1 = 0.0281	1.079
